Experimental data as given in ChEMBL document CHEMBL3885881, “DrugMatrix”.

Species on record: Rattus norvegicus
Type: toxicity, organism-based, Sprague-Dawley
Settings: in vivo, po, route oral GAVAGE, […]; for ABSOLUTE EOSINOPHIL / ABSOLUTE LYMPHOCYTE / ABSOLUTE MONOCYTE / ABSOLUTE SEGMENTED NEUTROPHIL / BASOPHIL / EOSINOPHIL / ERYTHROCYTE COUNT / HEMATOCRIT / HEMOGLOBIN / LEUKOCYTE COUNT / LYMPHOCYTE / MEAN CORPUSCULAR HEMOGLOBIN / MEAN CORPUSCULAR HEMOGLOBIN CONCENTRATION / MEAN CORPUSCULAR VOLUME / MONOCYTE / NEUTROPHIL / NUCLEATED RED BLOOD CELLS / PLATELET COUNT: tissue Blood; for ALANINE AMINOTRANSFERASE / ALBUMIN / ALKALINE PHOSPHATASE / ASPARTATE AMINOTRANSFERASE / BLOOD UREA NITROGEN / CARBON DIOXIDE / CHLORIDE / CHOLESTEROL / CREATINE PHOSPHOKINASE / CREATININE / GLUCOSE / LACTATE DEHYDROGENASE / LIPASE / PHOSPHORUS / POTASSIUM / SODIUM / TOTAL BILIRUBIN / TOTAL PROTEIN / URIC ACID: tissue Plasma
[1] = 400 mg/kg, 24 h, dose level Low, time 1 day
[2] = 1175 mg/kg, 6 h, dose level High, time 0.25 day
[3] = 1175 mg/kg, 24 h, dose level High, time 1 day

Description: DrugMatrix - Regimen: Single

## ClC(Cl)(Cl)Cl [CARBON TETRACHLORIDE]
[1]
  ABSOLUTE EOSINOPHIL: 0 CELLS/uL
  ABSOLUTE LYMPHOCYTE: 6780.67 CELLS/uL
  ABSOLUTE MONOCYTE: 96.83 CELLS/uL
  ABSOLUTE SEGMENTED NEUTROPHIL: 789.17 CELLS/uL
  BASOPHIL: 0%
  EOSINOPHIL: 0%
  ERYTHROCYTE COUNT: 5.7 x10E6/uL
  HEMATOCRIT: 35.63%
  HEMOGLOBIN: 14.05 G/DL
  LEUKOCYTE COUNT: 7.67 x10E3/uL
  LYMPHOCYTE: 88%
  MEAN CORPUSCULAR HEMOGLOBIN: 24.7 pg
  MEAN CORPUSCULAR HEMOGLOBIN CONCENTRATION: 39.43 G/DL
  MEAN CORPUSCULAR VOLUME: 62.67 fL
  MONOCYTE: 1.17%
  NEUTROPHIL: 10.83%
  NUCLEATED RED BLOOD CELLS: 0 /100WBC
  PLATELET COUNT: 966 x10E3/uL
  ALANINE AMINOTRANSFERASE: 129.17 u/L
  ALBUMIN: 4.17 G/DL
  ALKALINE PHOSPHATASE: 338.17 u/L
  ASPARTATE AMINOTRANSFERASE: 420.5 u/L
  BLOOD UREA NITROGEN: 16.33 mg/dL
  CARBON DIOXIDE: 34.33 mmol/L
  CHLORIDE: 98.5 MEQ/L
  CHOLESTEROL: 58 mg/dL
  CREATINE PHOSPHOKINASE: 252 u/L
  CREATININE: 0.29 mg/dL
  GLUCOSE: 127.33 mg/dL
  LACTATE DEHYDROGENASE: 240.17 u/L
  LIPASE: 9.83 u/L
  PHOSPHORUS: 9.37 mg/dL
  POTASSIUM: 5.7 MEQ/L
  SODIUM: 144.08 MEQ/L
  TOTAL BILIRUBIN: 0.22 mg/dL
  TOTAL PROTEIN: 6.3 G/DL
  URIC ACID: 0.53 mg/dL
[2]
  ABSOLUTE EOSINOPHIL: 83.17 CELLS/uL
  ABSOLUTE LYMPHOCYTE: 9204 CELLS/uL
  ABSOLUTE MONOCYTE: 323.67 CELLS/uL
  ABSOLUTE SEGMENTED NEUTROPHIL: 4922.5 CELLS/uL
  BASOPHIL: 0%
  EOSINOPHIL: 0.5%
  ERYTHROCYTE COUNT: 5.84 x10E6/uL
  HEMATOCRIT: 39.2%
  HEMOGLOBIN: 14.45 G/DL
  LEUKOCYTE COUNT: 14.53 x10E3/uL
  LYMPHOCYTE: 63.5%
  MEAN CORPUSCULAR HEMOGLOBIN: 24.75 pg
  MEAN CORPUSCULAR HEMOGLOBIN CONCENTRATION: 36.87 G/DL
  MEAN CORPUSCULAR VOLUME: 67.08 fL
  MONOCYTE: 2%
  NEUTROPHIL: 34%
  NUCLEATED RED BLOOD CELLS: 0.17 /100WBC
  PLATELET COUNT: 1289.67 x10E3/uL
  ALANINE AMINOTRANSFERASE: 157 u/L
  ALBUMIN: 4.5 G/DL
  ALKALINE PHOSPHATASE: 379.83 u/L
  ASPARTATE AMINOTRANSFERASE: 369 u/L
  BLOOD UREA NITROGEN: 14.83 mg/dL
  CARBON DIOXIDE: 21 mmol/L
  CHLORIDE: 97.83 MEQ/L
  CHOLESTEROL: 59.17 mg/dL
  CREATINE PHOSPHOKINASE: 433.5 u/L
  CREATININE: 0.14 mg/dL
  GLUCOSE: 128.33 mg/dL
  LACTATE DEHYDROGENASE: 1251.5 u/L
  LIPASE: 9.83 u/L
  PHOSPHORUS: 13.47 mg/dL
  POTASSIUM: 5.85 MEQ/L
  SODIUM: 140.9 MEQ/L
  TOTAL BILIRUBIN: 0.32 mg/dL
  TOTAL PROTEIN: 5.88 G/DL
  URIC ACID: 2.1 mg/dL
[3]
  ABSOLUTE EOSINOPHIL: 28.67 CELLS/uL
  ABSOLUTE LYMPHOCYTE: 8687.33 CELLS/uL
  ABSOLUTE MONOCYTE: 78.33 CELLS/uL
  ABSOLUTE SEGMENTED NEUTROPHIL: 1872.33 CELLS/uL
  BASOPHIL: 0%
  EOSINOPHIL: 0.33%
  ERYTHROCYTE COUNT: 5.91 x10E6/uL
  HEMATOCRIT: 37.1%
  HEMOGLOBIN: 14.7 G/DL
  LEUKOCYTE COUNT: 10.67 x10E3/uL
  LYMPHOCYTE: 81%
  MEAN CORPUSCULAR HEMOGLOBIN: 24.93 pg
  MEAN CORPUSCULAR HEMOGLOBIN CONCENTRATION: 39.62 G/DL
  MEAN CORPUSCULAR VOLUME: 62.85 fL
  MONOCYTE: 0.83%
  NEUTROPHIL: 17.83%
  NUCLEATED RED BLOOD CELLS: 0 /100WBC
  PLATELET COUNT: 912.17 x10E3/uL
  ALANINE AMINOTRANSFERASE: 544.67 u/L
  ALBUMIN: 4.05 G/DL
  ALKALINE PHOSPHATASE: 371.33 u/L
  ASPARTATE AMINOTRANSFERASE: 3091.33 u/L
  BLOOD UREA NITROGEN: 15.5 mg/dL
  CARBON DIOXIDE: 33.83 mmol/L
  CHLORIDE: 98.33 MEQ/L
  CHOLESTEROL: 55 mg/dL
  CREATINE PHOSPHOKINASE: 312.83 u/L
  CREATININE: 0.32 mg/dL
  GLUCOSE: 129.83 mg/dL
  LACTATE DEHYDROGENASE: 4392.83 u/L
  LIPASE: 10 u/L
  PHOSPHORUS: 9.72 mg/dL
  POTASSIUM: 5.12 MEQ/L
  SODIUM: 144.23 MEQ/L
  TOTAL BILIRUBIN: 0.27 mg/dL
  TOTAL PROTEIN: 6.05 G/DL
  URIC ACID: 0.52 mg/dL
